From the NIST ThermoML archive (doi:10.1016/j.jct.2011.07.011)
Where “and” joins values, the source holds several entries; their conditions need not be identical. Equal values may be shown once. ± gives the expanded uncertainty stated by the source.

Details: Crystal; Heating/Cooling curves

- Triple point temperature: 24.54 ± 0.077 K and 24.69 ± 0.077 K
Structure (SMILES): [Ne] [neon]
